Laboratory results taken from patent publication US20040076974A1, “Liver necrosis predictive genes” (priority 2002, published 2004).
Values joined by “and” are separate entries in the source; they are usually repeats but may differ in a detail not shown here. Equal values may be shown once. Read-outs that look alike come from different tables or passages of the source.

Assays:
Sprague Dawley rats = conditions: for Liver Necrosis / Score (histopathology liver necrosis severity score): rat, intraperitoneal; for Liver Necrosis: 72 hours after treatment; for Score (histopathology liver necrosis severity score): 72 hours, 1 = not remarkable, 2 and higher increasing severity
Experimental: Sprague Dawley rats Crl:CD from Charles River, Raleigh, N.C. were divided into treated rats that receive a specific concentration of the compound (see Table 1) and. control rats that only received the vehicle in which the compound is mixed (e.g., saline).
At specified timepoints (6 h, 24 h and 72 h) after administration (intraperitoneal route) of the compound, a set number of rats (usually 3 control and 3 treated) were euthanized and tissues collected. Each, rat was heavily sedated with an overdose of CO2 by inhalation and a maximum amount of blood drawn. Exsanguination of the rat by this drawing of blood kills the rat. The method of collecting the tissues is very important and ensures preserving the quality of the mRNA in the tissues. The body of the rat was then opened up and prosectors rapidly removed the tissues (including) and immediately placed them into liquid nitrogen. […] The organs/tissues were then packaged into well-labeled plastic freezer quality bags and stored at −80 degrees until needed for isolation of the mRNA from a portion of the organ/tissue sample.
Histopathology scores for each animal (assigned on a compound-dose basis as indicated in Table 1) were entered with gene expression data by using the GeneSpring™ ‘Drawn Gene’ function. Correlations between the histopathology scores and gene expression were conducted with the distance measures listed below:
Toxicity classifications were entered for training and test set as a parameter column. Toxicity, as defined by observation of necrosis in the at 72 hours after treatment, was entered as a “yes” or “no” for each animal in a compound-dose group. Additionally, a parameter column for random histopathology classification was designated. This was done by randomly assigning the same number of “yes” and “no” calls to the individual animals.

[1] = system: toxicologically relevant rat genes (rat CT array); conditions: 24 h

ClC(Cl)(Cl)Cl [carbon tetrachloride]
Liver Toxicity Necrosis Classification (Sprague Dawley rats; 72 h, dose 250): yes | Liver Toxicity Necrosis Classification (Sprague Dawley rats; 72 h, dose 1000): yes | Liver Toxicity Necrosis Classification (Sprague Dawley rats; compound-dose group at 72 h, CCL4 1000, DMN 20, LPS 8): yes | Liver Toxicity Necrosis Classification (Sprague Dawley rats; compound-dose group at 72 h, dose 250): yes | Liver Toxicity Necrosis Classification (Sprague Dawley rats; compound-dose group at 72 h, dose 1000): yes | Liver Toxicity Necrosis Classification (Sprague Dawley rats; compound-dosegroup at 72 h, dose 250): yes | Liver Toxicity Necrosis Classification (Sprague Dawley rats; compound-dosegroup at 72 h, dose 1000): yes | Liver Necrosis (Sprague Dawley rats; dose 0.25 ml/kg): Yes | Score (histopathology liver necrosis severity score) (Sprague Dawley rats; dose 0.25 ml/kg): 3 | Liver Necrosis (Sprague Dawley rats; dose 1 ml/kg): Yes | Score (histopathology liver necrosis severity score) (Sprague Dawley rats; dose 1 ml/kg): 6 | 14-3-3 zeta expression (treatment/control) ([1]; dose 250, listed as CCL4): 1.66 and 1.924 and 1.756 | 17-beta hydroxysteroid dehydrogenase, type 2 expression (treatment/control) ([1]; dose 250, listed as CCL4): 1.054 and 0.5508 and 0.756 | Cathepsin L, sequence 2 expression (treatment/control) ([1]; dose 250, listed as CCL4): 1.932 and 2.846 and 1.646 | Dynamin-1 (D100) expression (treatment/control) ([1]; dose 250, listed as CCL4): 0.7967 and 0.581 and 0.7391 | Gadd45 expression (treatment/control) ([1]; dose 250, listed as CCL4): 2.248 and 2.519 and 1.891 | Gamma-actin, cytoplasmic expression (treatment/control) ([1]; dose 250, listed as CCL4): 1.21 and 1.729 and 1.683 | Insulin-like growth factor binding protein 1 expression (treatment/control) ([1]; dose 250, listed as CCL4): 1.423 and 1.69 and 1.605 | L-gulono-gamma-lactone oxidase expression (treatment/control) ([1]; dose 250, listed as CCL4): 0.5457 and 0.345 and 0.5416 | Matrin F/G expression (treatment/control) ([1]; dose 250, listed as CCL4): 0.8257 and 0.6948 and 0.7947 | Ornithine decarboxylase expression (treatment/control) ([1]; dose 250, listed as CCL4): 1.229 and 1.514 and 1.453 | PAR interacting protein expression (treatment/control) ([1]; dose 250, listed as CCL4): 1.251 and 1.611 and 1.178 | Phase-1 RCT-33 expression (treatment/control) ([1]; dose 250, listed as CCL4): 0.7 | Phase-1 RCT-36 expression (treatment/control) ([1]; dose 250, listed as CCL4): 0.9183 and 0.9601 | Phase-1 RCT-38 expression (treatment/control) ([1]; dose 250, listed as CCL4): 0.6811 and 0.8069 | Phase-1 RCT-39 expression (treatment/control) ([1]; dose 250, listed as CCL4): 1.553 | Phase-1 RCT-40 expression (treatment/control) ([1]; dose 250, listed as CCL4): 0.8329 | Phase-1 RCT-48 expression (treatment/control) ([1]; dose 250, listed as CCL4): 0.8905 | Phase-1 RCT-49 expression (treatment/control) ([1]; dose 250, listed as CCL4): 1.595 and 1.935 and 1.969 | Phase-1 RCT-50 expression (treatment/control) ([1]; dose 250, listed as CCL4): 1.199 and 1.292 | Phase-1 RCT-68 expression (treatment/control) ([1]; dose 250, listed as CCL4): 1.615 | Phase-1 RCT-78 expression (treatment/control) ([1]; dose 250, listed as CCL4): 0.6214 | Phase-1 RCT-83 expression (treatment/control) ([1]; dose 250, listed as CCL4): 0.8265 and 0.5965 and 0.5296 | Phase-1 RCT-89 expression (treatment/control) ([1]; dose 250, listed as CCL4): 0.7738 and 0.5787 and 0.6881 | Phase-1 RCT-92 expression (treatment/control) ([1]; dose 250, listed as CCL4): 0.6412 and 0.598 and 0.6063 | Phase-1 RCT-128 expression (treatment/control) ([1]; dose 250, listed as CCL4): 0.7659 and 0.5352 and 0.6882 | Phase-1 RCT-144 expression (treatment/control) ([1]; dose 250, listed as CCL4): 1.636 and 2.462 and 1.54 | Phase-1 RCT-145 expression (treatment/control) ([1]; dose 250, listed as CCL4): 1.894 | Phase-1 RCT-180 expression (treatment/control) ([1]; dose 250, listed as CCL4): 1.103 | Phase-1 RCT-182 expression (treatment/control) ([1]; dose 250, listed as CCL4): 0.5663 and 0.6692 | Phase-1 RCT-213 expression (treatment/control) ([1]; dose 250, listed as CCL4): 1.658 and 1.455 | Phase-1 RCT-256 expression (treatment/control) ([1]; dose 250, listed as CCL4): 0.6795 and 0.8008 | Phase-1 RCT-264 expression (treatment/control) ([1]; dose 250, listed as CCL4): 0.5556 and 0.3693 and 0.5559 | Phase-1 RCT-288 expression (treatment/control) ([1]; dose 250, listed as CCL4): 0.6979 and 0.5773 and 0.6386 | Phase-1 RCT-291 expression (treatment/control) ([1]; dose 250, listed as CCL4): 0.7629 and 0.7701 | Phase-1 RCT-295 expression (treatment/control) ([1]; dose 250, listed as CCL4): 1.942 and 1.579 | Ribosomal protein S17 expression (treatment/control) ([1]; dose 250, listed as CCL4): 1.826 and 2.664 and 2.129 | Senescence marker protein-30 expression (treatment/control) ([1]; dose 250, listed as CCL4): 0.7864 and 0.5048 and 0.8299 | Zinc finger protein expression (treatment/control) ([1]; dose 250, listed as CCL4): 1.078 and 1.318 and 1.451 | 14-3-3 zeta expression (treatment/control) ([1]; dose 1000): 2.165 | 17-beta hydroxysteroid dehydrogenase, type 2 expression (treatment/control) ([1]; dose 1000): 0.5477 | Cathepsin L, sequence 2 expression (treatment/control) ([1]; dose 1000): 4.767 | Dynamin-1 (D100) expression (treatment/control) ([1]; dose 1000): 0.4373 | Gadd45 expression (treatment/control) ([1]; dose 1000): 2.03 | Gamma-actin, cytoplasmic expression (treatment/control) ([1]; dose 1000): 2.857 | Insulin-like growth factor binding protein 1 expression (treatment/control) ([1]; dose 1000): 2.908 | L-gulono-gamma-lactone oxidase expression (treatment/control) ([1]; dose 1000): 0.2874 | Matrin F/G expression (treatment/control) ([1]; dose 1000): 0.5748 | Ornithine decarboxylase expression (treatment/control) ([1]; dose 1000): 2.004 | PAR interacting protein expression (treatment/control) ([1]; dose 1000): 1.736 | Phase-1 RCT-33 expression (treatment/control) ([1]; dose 1000): 0.4824 | Phase-1 RCT-36 expression (treatment/control) ([1]; dose 1000): 0.6382 | Phase-1 RCT-38 expression (treatment/control) ([1]; dose 1000): 0.5871 | Phase-1 RCT-39 expression (treatment/control) ([1]; dose 1000): 1.821 | Phase-1 RCT-40 expression (treatment/control) ([1]; dose 1000): 0.7596 | Phase-1 RCT-48 expression (treatment/control) ([1]; dose 1000): 0.9803 | Phase-1 RCT-49 expression (treatment/control) ([1]; dose 1000): 2.488 | Phase-1 RCT-50 expression (treatment/control) ([1]; dose 1000): 1.792 | Phase-1 RCT-68 expression (treatment/control) ([1]; dose 1000): 1.656 | Phase-1 RCT-78 expression (treatment/control) ([1]; dose 1000): 0.5578 | Phase-1 RCT-83 expression (treatment/control) ([1]; dose 1000): 0.3247 | Phase-1 RCT-89 expression (treatment/control) ([1]; dose 1000): 0.4606 | Phase-1 RCT-92 expression (treatment/control) ([1]; dose 1000): 0.3009 | Phase-1 RCT-128 expression (treatment/control) ([1]; dose 1000): 0.3095 | Phase-1 RCT-144 expression (treatment/control) ([1]; dose 1000): 2.627 | Phase-1 RCT-145 expression (treatment/control) ([1]; dose 1000): 1.753 | Phase-1 RCT-180 expression (treatment/control) ([1]; dose 1000): 1.291 | Phase-1 RCT-182 expression (treatment/control) ([1]; dose 1000): 0.3598 | Phase-1 RCT-207 expression (treatment/control) ([1]; dose 1000): 2.086 | Phase-1 RCT-213 expression (treatment/control) ([1]; dose 1000): 1.988 | Phase-1 RCT-256 expression (treatment/control) ([1]; dose 1000): 0.6382 | Phase-1 RCT-264 expression (treatment/control) ([1]; dose 1000): 0.2087 | Phase-1 RCT-288 expression (treatment/control) ([1]; dose 1000): 0.4221 | Phase-1 RCT-291 expression (treatment/control) ([1]; dose 1000): 0.5561 | Phase-1 RCT-295 expression (treatment/control) ([1]; dose 1000): 2.11 | Phase-1 RCT-296 expression (treatment/control) ([1]; dose 1000): 0.2278 | Ribosomal protein S17 expression (treatment/control) ([1]; dose 1000): 3.461 | Senescence marker protein-30 expression (treatment/control) ([1]; dose 1000): 0.2057 | Zinc finger protein expression (treatment/control) ([1]; dose 1000): 1.697
